Measured values taken from paper PMC8534114, “Molecular Basis of a Dominant SARS-CoV-2 Spike-Derived Epitope Presented by HLA-A*02:01 Recognised by a Public TCR” (Cells, 2021).

Legend:
[1] = test system: CD8+ T cells; assay type: cell-based, human
[2] = test system: CD8+ T cells; conditions: cited from earlier work

YLQPRTFLL
CD8+ T cell response, overall [1]: all able to generate a polyfunctional CD8+ T cell response | CD8+ T cell response (in words) [2]: strong CD8+ T cell response | CD8+ T cell stimulation (in words) [2]: strongly stimulate CD8+ T cells
